Key:
[1] = tested on: human epidermal keratinocytes; settings: vitamin U 10^−2, 10^−3, 10^−4 M, 1/10 growth factor, scratch; vs control not treated with vitamin U
Method: The following experiment was performed to investigate if vitamin U could increase the movement of human epidermal keratinocytes (hereinafter hEK) in vitro. The basic culture medium was obtained fromDefined Keratinocyte-SFM (Gibco, USA) with Defined Keratinocyte-SFM Growth supplement and growth factors. For the experiment, such an amount of 1/10 growth factor and vitamin U were added that the final concentrations of vitamin U should be 10^−2, 10^−3, and 10^−4 M. In the meantime, vitamin-free medium containing 1/10 growth factor was used for the control.
Human keratinocytes were cultured in a 6-well culture dish until the cells were grown at least 90% confluent. The cells were scratched out by using 2 mm micro tip. The fallen-off cells were washed out with PBS, followed by culture in another experimental medium.

collagen = settings: mouse, in vivo
Method: (§1) An experiment on Inhibitory effect on collagenase of the cosmetic composition containing vitamin U of the present invention was carried out. The experiment was carried for 4 weeks with the Atrichia mice divided into two groups, each of which is composed of 10 mice. Vitamin U containing cosmetic formula, prepared in cream with 10% vitamin U, was applied onto the back skin of the experimental group mouse every day. In the meantime, vitamin U-free ordinary formula was applied on the control. 4 weeks later, back skin was picked from both groups. RNA was extracted from the skin tissues, followed by real-time PCR to investigate the transcription level of collagenase mRNA (FIG. 8).

collagenase mRNA = settings: mouse, in vivo
Method: as §1

gastric mucosa [2] = settings: pig, vitamin U administered; cited from earlier work
gastric mucosa [3] = settings: rabbit, vitamin U administered; cited from earlier work
human dermal fibroblasts = settings: vitamin U 10^−2 or 10^−3 M, DMEM with 1% FBS, scratch; vs control not treated with vitamin
Method: The medium used for the wound healing experiment was obtained from DMEM with 1% FBS. Such an amount of vitamin U was added that the final vitamin U concentration should be 10^−2 or 10^−3 M. In the meantime, vitamin-free medium containing 1% FBS was used for the control.
Human fibroblasts were cultured in a 6-well culture dish until the cells were grown at least 90% confluent. The cells were scratched out by using 2 mm micro tip. The fallen-off cells were washed out with PBS, followed by culture in another experimental medium. Then, it was observed by photograph how many cells migrate into the room between scratches.

CS.CSCCC(N)C(=O)O.Cl (racemic) [vitamin U, DL-methionine methylsulfonium chloride]
migration of keratinocytes [1]: much more increased
collagen (Western blotting) (collagen): increase of collagen
collagenase mRNA transcription (collagenase mRNA): significant inhibition
ulcer of gastric mucosa (gastric mucosa [2]): suppressed
mucin secretion of gastric mucosa (gastric mucosa [3]): increased
migration of fibroblasts (human dermal fibroblasts): much more increased

Reference: patent publication US20110009489A1, “COSMETIC COMPOSITION COMPRISING VITAMIN U AS ACTIVE INGREDIENT FOR HEALING WOUNDS AND REDUCING WRINKLES” (CUSKIN CO., LTD., priority 2008, published 2011)
